Like-named read-outs stand apart in the source and are kept apart here.
What was measured:
Erysiphe = experiment: In vitro fungicidal activity, growth rate method (Strawberry powdery mildew); type: cell-based
Phytophthora = type: cell-based; conditions: Potato late blight
Botryosphaeria = experiment: In vitro fungicidal activity, growth rate method (Apple ring spot); type: cell-based; design: key: “—” means the activity is not obvious
[1] = tested on: Alternaria alternata (Fr.) Keissl; experiment: In vitro fungicidal activity, growth rate method (Apple altermaria leaf spot); type: cell-based
[2] = tested on: Fusarium oxysporum f. sp cucumerinum; experiment: In vitro fungicidal activity, growth rate method (Cucumber fusarium wilt); type: cell-based; design: key: “—” means the activity is not obvious
Botrytis cinerea [3] = experiment: In vitro fungicidal activity, growth rate method (Cucumber gray mold); type: cell-based; design: key: “—” means the activity is not obvious
Pyricularia grisea = type: cell-based; conditions: Rice blast
Mycosphaerella musicola = experiment: In vitro fungicidal activity, growth rate method (Banana leaf spot disease); type: cell-based
Botrytis cinerea [4] = experiment: In vitro fungicidal activity, growth rate method (Strawberry grey mold); type: cell-based; design: key: “—” means the activity is not obvious
Sclerotinia sclerotiorum [5] = experiment: In vitro fungicidal activity, growth rate method (Cucumber sclerotinia rot); type: cell-based
Altemaria solani = experiment: In vitro fungicidal activity, growth rate method (Tomato early blight); type: cell-based
Sclerotinia sclerotiorum [6] = experiment: In vitro fungicidal activity, growth rate method (Chili sclerotium); type: cell-based
Fusarium moniliforme = experiment: In vitro fungicidal activity, growth rate method (Rice bakanae disease); type: cell-based; design: key: “—” means the activity is not obvious
Alternaria kikuchiana = experiment: In vitro fungicidal activity, growth rate method (Pear black spot); type: cell-based
[7] = tested on: Helminthosporium carposaprum; experiment: In vitro fungicidal activity, growth rate method (Corn spot); type: cell-based
Rhizoctonia solani = experiment: In vitro fungicidal activity, growth rate method (Rice sheath blight); type: cell-based
[8] = tested on: Sinoe ampelina (de Bary) Shear; experiment: In vitro fungicidal activity, growth rate method (Grape anthracnose); type: cell-based; design: key: “—” means the activity is not obvious
Cercospora arachidicola = experiment: In vitro fungicidal activity, growth rate method (Peanut brown spot); type: cell-based; design: key: “—” means the activity is not obvious
[9] = tested on: Sphaerotheca fuliginea (Schlecht) Poll.; experiment: In vitro fungicidal activity, growth rate method (Cucumber powdery mildew); type: cell-based
[10] = In vitro fungicidal activity, growth rate method (Colletotrichum capsici); type: cell-based, Acanthopteris fungi; conditions: plant disease Colletotrichum capsici
[11] = type: cell-based, Acinomycete spiculata; conditions: Cucumber anthrax

CC1COC(Cn2cnnc2)(c2ccc(Oc3ccc(Cl)cc3)cc2Cl)O1 (stereo not drawn) [Formula I, 4-((-(2-chloro-4-(4-chlorophenoxy)phenyl)-4-methyl-1,3-dioxapentan-2-yl)methyl)-4H-1,2,4-triazole]
Fungicidal activity (inhibition ratio %) (Erysiphe; 1 μg/mL): 33.24%
Fungicidal activity (inhibition ratio %) (Erysiphe; 5 μg/mL): 54.62%
Fungicidal activity (inhibition ratio %) (Erysiphe; 10 μg/mL): 67.26%
Fungicidal activity (inhibition ratio %) (Erysiphe; 15 μg/mL): 76.09%
Fungicidal activity (inhibition ratio %) (Erysiphe; 20 μg/mL): 79.02%
Fungicidal activity (inhibition ratio %) (Phytophthora; 1 μg/mL): 27.03%
Fungicidal activity (inhibition ratio %) (Phytophthora; 5 μg/mL): 31.96%
Fungicidal activity (inhibition ratio %) (Phytophthora; 10 μg/mL): 43.44%
Fungicidal activity (inhibition ratio %) (Phytophthora; 15 μg/mL): 65.08%
Fungicidal activity (inhibition ratio %) (Phytophthora; 20 μg/mL): 73.63%
Fungicidal activity (inhibition ratio %) (Botryosphaeria; 1 μg/mL): —
Fungicidal activity (inhibition ratio %) (Botryosphaeria; 5 μg/mL): 41.28%
Fungicidal activity (inhibition ratio %) (Botryosphaeria; 10 μg/mL): 53.56%
Fungicidal activity (inhibition ratio %) (Botryosphaeria; 15 μg/mL): 68.76%
Fungicidal activity (inhibition ratio %) (Botryosphaeria; 20 μg/mL): 73.46%
Fungicidal activity (inhibition ratio %) ([1]; 1 μg/mL): 26.94%
Fungicidal activity (inhibition ratio %) ([1]; 5 μg/mL): 34.48%
Fungicidal activity (inhibition ratio %) ([1]; 10 μg/mL): 52.31%
Fungicidal activity (inhibition ratio %) ([1]; 15 μg/mL): 66.71%
Fungicidal activity (inhibition ratio %) ([1]; 20 μg/mL): 74.65%
Fungicidal activity (inhibition ratio %) ([2]; 1 μg/mL): —
Fungicidal activity (inhibition ratio %) ([2]; 5 μg/mL): —
Fungicidal activity (inhibition ratio %) ([2]; 10 μg/mL): 18.32%
Fungicidal activity (inhibition ratio %) ([2]; 15 μg/mL): 31.77%
Fungicidal activity (inhibition ratio %) ([2]; 20 μg/mL): 48.18%
Fungicidal activity (inhibition ratio %) (Botrytis cinerea [3]; 1 μg/mL): —
Fungicidal activity (inhibition ratio %) (Botrytis cinerea [3]; 5 μg/mL): —
Fungicidal activity (inhibition ratio %) (Botrytis cinerea [3]; 10 μg/mL): 5.10%
Fungicidal activity (inhibition ratio %) (Botrytis cinerea [3]; 15 μg/mL): 9.98%
Fungicidal activity (inhibition ratio %) (Botrytis cinerea [3]; 20 μg/mL): 21.26%
Fungicidal activity (inhibition ratio %) (Pyricularia grisea; 1 μg/mL): 11.94%
Fungicidal activity (inhibition ratio %) (Pyricularia grisea; 5 μg/mL): 25.37%
Fungicidal activity (inhibition ratio %) (Pyricularia grisea; 10 μg/mL): 44.73%
Fungicidal activity (inhibition ratio %) (Pyricularia grisea; 15 μg/mL): 58.23%
Fungicidal activity (inhibition ratio %) (Pyricularia grisea; 20 μg/mL): 67.59%
Fungicidal activity (inhibition ratio %) (Mycosphaerella musicola; 1 μg/mL): 25.26%
Fungicidal activity (inhibition ratio %) (Mycosphaerella musicola; 5 μg/mL): 31.30%
Fungicidal activity (inhibition ratio %) (Mycosphaerella musicola; 10 μg/mL): 43.35%
Fungicidal activity (inhibition ratio %) (Mycosphaerella musicola; 15 μg/mL): 52.11%
Fungicidal activity (inhibition ratio %) (Mycosphaerella musicola; 20 μg/mL): 66.76%
Fungicidal activity (inhibition ratio %) (Botrytis cinerea [4]; 1 μg/mL): —
Fungicidal activity (inhibition ratio %) (Botrytis cinerea [4]; 5 μg/mL): —
Fungicidal activity (inhibition ratio %) (Botrytis cinerea [4]; 10 μg/mL): 7.12%
Fungicidal activity (inhibition ratio %) (Botrytis cinerea [4]; 15 μg/mL): 13.46%
Fungicidal activity (inhibition ratio %) (Botrytis cinerea [4]; 20 μg/mL): 29.22%
Fungicidal activity (inhibition ratio %) (Sclerotinia sclerotiorum [5]; 1 μg/mL): 12.55%
Fungicidal activity (inhibition ratio %) (Sclerotinia sclerotiorum [5]; 5 μg/mL): 34.23%
Fungicidal activity (inhibition ratio %) (Sclerotinia sclerotiorum [5]; 10 μg/mL): 51.21%
Fungicidal activity (inhibition ratio %) (Sclerotinia sclerotiorum [5]; 15 μg/mL): 64.29%
Fungicidal activity (inhibition ratio %) (Sclerotinia sclerotiorum [5]; 20 μg/mL): 71.84%
Fungicidal activity (inhibition ratio %) (Altemaria solani; 1 μg/mL): 13.20%
Fungicidal activity (inhibition ratio %) (Altemaria solani; 5 μg/mL): 52.88%
Fungicidal activity (inhibition ratio %) (Altemaria solani; 10 μg/mL): 67.29%
Fungicidal activity (inhibition ratio %) (Altemaria solani; 15 μg/mL): 77.88%
Fungicidal activity (inhibition ratio %) (Altemaria solani; 20 μg/mL): 85.86%
Fungicidal activity (inhibition ratio %) (Sclerotinia sclerotiorum [6]; 1 μg/mL): 12.81%
Fungicidal activity (inhibition ratio %) (Sclerotinia sclerotiorum [6]; 5 μg/mL): 17.96%
Fungicidal activity (inhibition ratio %) (Sclerotinia sclerotiorum [6]; 10 μg/mL): 25.35%
Fungicidal activity (inhibition ratio %) (Sclerotinia sclerotiorum [6]; 15 μg/mL): 39.34%
Fungicidal activity (inhibition ratio %) (Sclerotinia sclerotiorum [6]; 20 μg/mL): 55.18%
Fungicidal activity (inhibition ratio %) (Fusarium moniliforme; 1 μg/mL): —
Fungicidal activity (inhibition ratio %) (Fusarium moniliforme; 5 μg/mL): 22.26%
Fungicidal activity (inhibition ratio %) (Fusarium moniliforme; 10 μg/mL): 36.71%
Fungicidal activity (inhibition ratio %) (Fusarium moniliforme; 15 μg/mL): 45.62%
Fungicidal activity (inhibition ratio %) (Fusarium moniliforme; 20 μg/mL): 61.79%
Fungicidal activity (inhibition ratio %) (Alternaria kikuchiana; 1 μg/mL): 29.98%
Fungicidal activity (inhibition ratio %) (Alternaria kikuchiana; 5 μg/mL): 35.76%
Fungicidal activity (inhibition ratio %) (Alternaria kikuchiana; 10 μg/mL): 46.61%
Fungicidal activity (inhibition ratio %) (Alternaria kikuchiana; 15 μg/mL): 59.78%
Fungicidal activity (inhibition ratio %) (Alternaria kikuchiana; 20 μg/mL): 67.44%
Fungicidal activity (inhibition ratio %) ([7]; 1 μg/mL): 8.92%
Fungicidal activity (inhibition ratio %) ([7]; 5 μg/mL): 22.44%
Fungicidal activity (inhibition ratio %) ([7]; 10 μg/mL): 33.45%
Fungicidal activity (inhibition ratio %) ([7]; 15 μg/mL): 44.46%
Fungicidal activity (inhibition ratio %) ([7]; 20 μg/mL): 53.22%
Fungicidal activity (inhibition ratio %) (Rhizoctonia solani; 1 μg/mL): 37.80%
Fungicidal activity (inhibition ratio %) (Rhizoctonia solani; 5 μg/mL): 52.79%
Fungicidal activity (inhibition ratio %) (Rhizoctonia solani; 10 μg/mL): 68.48%
Fungicidal activity (inhibition ratio %) (Rhizoctonia solani; 15 μg/mL): 72.82%
Fungicidal activity (inhibition ratio %) (Rhizoctonia solani; 20 μg/mL): 82.56%
Fungicidal activity (inhibition ratio %) ([8]; 1 μg/mL): —
Fungicidal activity (inhibition ratio %) ([8]; 5 μg/mL): 25.12%
Fungicidal activity (inhibition ratio %) ([8]; 10 μg/mL): 42.04%
Fungicidal activity (inhibition ratio %) ([8]; 15 μg/mL): 52.93%
Fungicidal activity (inhibition ratio %) ([8]; 20 μg/mL): 65.18%
Fungicidal activity (inhibition ratio %) (Cercospora arachidicola; 1 μg/mL): —
Fungicidal activity (inhibition ratio %) (Cercospora arachidicola; 5 μg/mL): 19.71%
Fungicidal activity (inhibition ratio %) (Cercospora arachidicola; 10 μg/mL): 31.25%
Fungicidal activity (inhibition ratio %) (Cercospora arachidicola; 15 μg/mL): 39.48%
Fungicidal activity (inhibition ratio %) (Cercospora arachidicola; 20 μg/mL): 56.68%
Fungicidal activity (inhibition ratio %) ([9]; 1 μg/mL): 38.70%
Fungicidal activity (inhibition ratio %) ([9]; 5 μg/mL): 57.29%
Fungicidal activity (inhibition ratio %) ([9]; 10 μg/mL): 63.59%
Fungicidal activity (inhibition ratio %) ([9]; 15 μg/mL): 78.32%
Fungicidal activity (inhibition ratio %) ([9]; 20 μg/mL): 88.96%
Fungicidal activity (inhibition ratio %) ([10]; 1 μg/mL): 28.70%
Fungicidal activity (inhibition ratio %) ([10]; 5 μg/mL): 47.29%
Fungicidal activity (inhibition ratio %) ([10]; 10 μg/mL): 53.59%
Fungicidal activity (inhibition ratio %) ([10]; 15 μg/mL): 68.32%
Fungicidal activity (inhibition ratio %) ([10]; 20 μg/mL): 78.96%
Fungicidal activity (inhibition ratio %) ([11]; 1 μg/mL): 37.85%
Fungicidal activity (inhibition ratio %) ([11]; 5 μg/mL): 41.18%
Fungicidal activity (inhibition ratio %) ([11]; 10 μg/mL): 53.51%
Fungicidal activity (inhibition ratio %) ([11]; 15 μg/mL): 58.17%
Fungicidal activity (inhibition ratio %) ([11]; 20 μg/mL): 65.73%

From patent US20200093130A1, “APPLICATION OF TETRAHYDROBENZAZOLE IN PREPARATION OF AGRICULTURAL FUNGICIDE OR FUNGICIDE COMPOSITION AND PREPARATION METHOD THEREOF” (JIANGSU FREY AGROCHEMICALS CO., LTD, priority 2017, published 2020)
